B1: WIN N: chitin-binding WIN protein purified from barley grain or stressed barley leaf; residues 22-146 in SEQ ID No. 11 (protein)
chain: QQANNVRATYHYYRPAQNNWDLGAPAVSAYCATWDASKPLSWRSKYGWTAFCGPAGPRGQAACGKCLRVTNPATGAQITARIVDQCANGGLDLDWDTVFTKIDTNGIGYQQGHLNVNYQFVDCRD

Tests used:
[1] = system: Leptosphaeria nodorum; test: Mycelial growth in agar droplets coated with test protein; type: cell-based; conditions: protein concentration 20 μg/ml; 5 days; ni = did not inhibit
[2] = system: Cochliobolus sativus; test: as above; type: cell-based; conditions: protein concentration 20 μg/ml; 5 days; ni = did not inhibit
[3] = system: Fusarium graminearum; type: cell-based; conditions: 120 h; ni = did not inhibit fungal growth
[4] = system: Monilinia fructigena; test: Mycelial growth in agar droplets coated with test protein; type: cell-based; conditions: protein concentration 20 μg/ml; 5 days; ni = did not inhibit
[5] = system: Pseudocercosporella herpotrichoides; test: as above; type: cell-based; conditions: 5 days
[6] = system: Diplodia maydis; test: Anti-fungal activity against corn pathogens, microtiter spore assay; type: cell-based; conditions: 120 h; ni = did not inhibit fungal growth
[7] = system: Gibberella zeae; type: cell-based; conditions: 120 h; ni = did not inhibit fungal growth
[8] = system: Exserohilum turcicum race 2; type: cell-based; conditions: 120 h; ni = did not inhibit fungal growth
[9] = system: Botrytis cinerea; test: Mycelial growth in agar droplets coated with test protein; type: cell-based; conditions: protein concentration 20 μg/ml; 5 days; ni = did not inhibit
[10] = system: Exserohilum turcicum; test: Anti-fungal activity against corn pathogens, microtiter spore assay (Table 2, race not given); type: cell-based; conditions: 120 h; ni = did not inhibit fungal growth
[11] = system: Bipolaris maydis; test: Anti-fungal activity against corn pathogens, microtiter spore assay; type: cell-based; conditions: 120 h; ni = did not inhibit fungal growth
Description: (§1) The AX proteins according to the present invention are assessed for their anti-fungal activity against a number of corn pathogens. Concerning the results depicted in Tables 1 and 2, the assay of the AX proteins in respect of the corn pathogens is performed as follows. Five μl of a solution containing the proteins at the indicated concentrations are aseptically transferred into a well of a sterile, round-bottomed microtiter plate. All treatments are replicated once. Un-inoculated and inoculated culture media minus test protein solution are routinely included as controls. Spores (100-150) are aseptically added to each sample in a 5.0 μl aliquot of double strength Potato Dextrose Broth (PDB).
(§2) Following gentle agitation to mix the protein sample and spore suspension, a double layer of parafilm is wrapped around the lid/plate junction in order to minimize desiccation and the thus wrapped microtiter plate is incubated at 19°±0.2° C. with a 16 h photoperiod.
(§3) Individual wells are scored for spore germination and mycelial growth every 24 h. At the end of 120 h the level of anti-fungal activity is determined.

[12] = system: Exserohilum turcicum race 1; test: as above; type: cell-based; conditions: 120 h; ni = did not inhibit fungal growth
Description: as §1, §2, §3

[13] = system: Fusarium culmorum; test: Mycelial growth in agar droplets coated with test protein; type: cell-based; conditions: protein concentration 20 μg/ml; 5 days; ni = did not inhibit
Description: Concerning the results shown in Table 3, the assay of the AX and WIN N proteins in respect of the disclosed pathogens is performed as follows. Mycelium from the disclosed fungi are dispersed in a drop of molten agar which is then solidified. The solid agar droplets comprising the encapsulated mycelia are then coated with the test protein in the specified amount. Following incubation for 5 days under moist conditions the amount of mycelial growth is determined in comparison with controls, in which the agar droplets comprising the fungal roycelia are not coated with test protein. The results presented in […]

[14] = system: Fusarium moniliforme; test: Anti-fungal activity against corn pathogens, microtiter spore assay; type: cell-based; conditions: 120 h; ni = did not inhibit fungal growth
[15] = system: Pyricularia oryzae; type: cell-based; conditions: protein concentration 20 μg/ml; 5 days; ni = did not inhibit
[16] = system: Rhizoctonia solani; test: Mycelial growth in agar droplets coated with test protein; type: cell-based; conditions: 5 days
[17] = system: Colletotrichum graminicola; test: Anti-fungal activity against corn pathogens, microtiter spore assay; type: cell-based; conditions: 120 h; ni = did not inhibit fungal growth
[18] = system: C. beticola; test: Inhibition of fungal growth in 96 well micro-titre plates at 620 nm, spores of C. beticola; type: cell-based, Cercospora beticola; conditions: for 50% growth inhibition (I50) / IC50: C. beticola, after 72 hours incubation; for IC50: conversion of the ug/ml value, read-out: 50% growth inhibition (I50); for morphology of the fungus: FIG. 4, AX2 8 μg/ml, WIN 28 μg/ml; for rate of fungal hyphal extension: compared to controls
[19] = protein concentration 20 μg/ml, ni = did not inhibit

| Molecule | Growth inhibition [1] | Growth inhibition [2] | Minimum inhibitory concentration [3] | Protein concentration providing more than 50% growth inhibition [3] | Growth inhibition [4] | Minimum inhibitory concentration [6] | Protein concentration providing more than 50% growth inhibition [6] | Minimum inhibitory concentration [7] | Protein concentration providing more than 50% growth inhibition [7] | Minimum inhibitory concentration [8] | Growth inhibition [9] | Protein concentration providing more than 50% growth inhibition [10] | Minimum inhibitory concentration [11] | Protein concentration providing more than 50% growth inhibition [11] | Minimum inhibitory concentration [12] | Growth inhibition [13] | Minimum inhibitory concentration [14] | Protein concentration providing more than 50% growth inhibition [14] | Growth inhibition [15] | Minimum inhibitory concentration [17] | also measured |
| --- | --- | --- | --- | --- | --- | --- | --- | --- | --- | --- | --- | --- | --- | --- | --- | --- | --- | --- | --- | --- | --- |
| AX1: anti-microbial protein from sugar beet leaves infected with Cercospora beticola; residues 29-74 in SEQ ID No. 2, 46 amino acids (AICKKPSKFFKGACGRDADCEKACDQENWPGGVCVPFLRCECQRSC) | ni | 30% | 33 µg/mL | 33 µg/mL | 80% | 11 µg/mL | 11 µg/mL | ni | ni | 33 µg/mL | ni | 33 µg/mL | 20 µg/mL | 20 µg/mL | 11 µg/mL | ni | ni | ni | ni | 50 µg/mL | Growth inhibition ([5]; protein concentration 20 μg/ml): 30%; Growth inhibition [16, 19]: ni; Protein concentration providing more than 50% growth inhibition [17]: 50 µg/mL |
| AX2: anti-microbial protein from sugar beet leaves infected with Cercospora beticola; residues 29-74 in SEQ ID No. 5, 46 amino acids (ATCRKPSMYFSGACFSDTNCQKACNREDWPNGKCLVGFKCECQRPC) | 10% | 30% | 33 µg/mL | 33 µg/mL | 80% | ni | ni | ni | ni | ni | 10% | ni | 30 µg/mL | 33 µg/mL | 98 µg/mL | 10% | ni | ni | 20% | 50 µg/mL | Growth inhibition ([5]; protein concentration 20 μg/ml): 30%; Growth inhibition ([16]; protein concentration 40 μg/ml): 10%; 50% growth inhibition (I50) [18]: 2 µg/mL; IC50 [18]: ~0.5 µM; morphology of the fungus [18]: markedly changed; growth in vitro of C. beticola ([18]; FIGS. 3A and 3B, result in words): greater than that of AX1; rate of fungal hyphal extension [18]: profoundly slow; fungicidal activity against C. beticola ([18]; result in words): do not appear to exhibit fungicidal activity; Protein concentration providing more than 50% growth inhibition [17]: 50 µg/mL |
| B1 | ni | ni | ni | ni | ni | 64 µg/mL | 64 µg/mL | ni | ni | 193 µg/mL | ni | 193 µg/mL | ni | ni | ni | ni | ni | ni | ni | ni | Growth inhibition ([5]; protein concentration 40 μg/ml): 30%; Growth inhibition [16, 19]: ni; 50% growth inhibition (I50) [18]: 160 µg/mL; IC50 [18]: ~11 µM; morphology of the fungus [18]: markedly changed; rate of fungal hyphal extension [18]: profoundly slow; fungicidal activity against C. beticola ([18]; result in words): do not appear to exhibit fungicidal activity; Protein concentration providing more than 50% growth inhibition [17]: ni |
